Test results as given in PMC8804135 (Neurotherapeutics, 2021).
Numbered stars: 1 amine (or outer) side, 2 acyl side, 3 side chain; on linkers, the order of the positions; unused ones are H or OH. Bridge positions count the residues as written; N and C are the ends. Square brackets hold non-standard residues; d marks the D form. Ends that are not written are not given here. Peptide text beside a SMILES is read from it. dAbu(3S-yl) = C[C@@H]([C@@H](N[*:1])C(=O)[*:2])[*:3]; pGlu = O=C1CC[C@@H](C(=O)O)N1

Legend:
Type in all cases: cell-based
GAL2R [1] = molecular target: T1, GAL2R (Homo sapiens, UniProt O43603); assay: Fluo-4 Direct calcium assay (Ca efflux) in HEK293 cells overexpressing GAL2R; conditions: Table 3; HEK293 cells stably overexpressing GAL2R; Fluo-4, from 10 µM; (average) ratio, (n) in cell = number of assays; NA = ratio above 1000
T1 sequence (O43603 1-387): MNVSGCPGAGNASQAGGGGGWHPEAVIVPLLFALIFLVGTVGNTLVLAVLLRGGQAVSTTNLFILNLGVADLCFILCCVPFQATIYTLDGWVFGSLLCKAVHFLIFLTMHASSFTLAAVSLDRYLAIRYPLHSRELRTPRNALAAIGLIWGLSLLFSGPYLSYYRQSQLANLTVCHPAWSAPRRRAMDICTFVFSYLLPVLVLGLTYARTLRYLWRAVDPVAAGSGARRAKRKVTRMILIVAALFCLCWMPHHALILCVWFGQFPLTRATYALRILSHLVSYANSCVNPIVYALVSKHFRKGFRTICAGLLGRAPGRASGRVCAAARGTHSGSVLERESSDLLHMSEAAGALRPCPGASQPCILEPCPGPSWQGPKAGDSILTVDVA
Method: Calcium efflux was measured by using a Fluo-4 Direct Calcium Assay purchased from Thermo Fisher Scientific. HEK293 cells with stable overexpression of GAL2R (HEKR2) (kindly provided by Harald Dargatz, Molecular, Cellular and Pharmacobiology Section, Institute of Pharmaceutical Biology, University of Bonn, 53,115 Bonn, Germany) were used for analysis of the lanthipeptides. HEKR2 cells were seeded in a 96-well plate and grown overnight in DMEM supplemented with 10% FBS, 1% penicillin–streptomycin, 100 µg/ml Normocin, and 500 µg/ml G418 at 37 °C, 5% CO2 in a humidified incubator.
The next day, when the cells were nearly confluent, an equal amount of 2 × Fluo-4 Direct™ calcium reagent loading solution, containing 5 mM probenecid, was added to the wells, and the plate was incubated for 1 h at 37 °C. A serial 3 × dilution of the agonist compound in water was made, and 10 µl of the serial dilutions was applied to the cells in duplicate. The starting concentration of agonist in the assay was 10 µM. After 1–2 h of incubation at room temperature, the fluorescence was measured with excitation at 485/20 nm and emission at 528/20 nm with a Synergy HT Biotek reader.

GAL1R [2] = molecular target: T2, GAL1R (Homo sapiens, UniProt P47211); assay: PathHunter eXpress β-arrestin recruitment assay, GAL1R; parameters: expressed in transfected cells; conditions: Table 3; CHO-K1 cells co-expressing GAL1R and β-arrestin 2; 10 µM to 5 nM; (average) ratio, (n) in cell = number of assays; NA = ratio above 1000
T2 sequence (P47211 1-349): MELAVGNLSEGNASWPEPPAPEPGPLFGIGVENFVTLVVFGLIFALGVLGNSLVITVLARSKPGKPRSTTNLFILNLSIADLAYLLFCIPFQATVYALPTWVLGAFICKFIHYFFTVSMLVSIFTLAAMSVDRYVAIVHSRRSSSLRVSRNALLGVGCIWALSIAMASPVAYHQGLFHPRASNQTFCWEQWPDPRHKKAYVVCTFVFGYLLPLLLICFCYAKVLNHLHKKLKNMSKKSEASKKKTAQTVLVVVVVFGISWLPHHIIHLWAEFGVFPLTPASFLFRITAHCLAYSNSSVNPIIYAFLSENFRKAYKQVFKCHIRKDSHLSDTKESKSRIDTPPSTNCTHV
Method: (§1) To evaluate the ability of lanthipeptides to recruit ß-arrestins via GAL1R or via GAL2R, we used the PathHunter® eXpress GAL1R, CHO-K1, β-arrestin GPCR Assay and the PathHunter® eXpress GAL2R, CHO-K1, β-arrestin, GPCR Assay from Eurofins-DiscoverX. The assays were performed according to the manufacturer’s instructions. Briefly, for one assay, CHO-K1 cells co-expressing GAL1R or GAL2R and β-arrestin (isoform 2) were diluted in AssayComplete™ Cell Plating Reagent, and 100 µl was seeded into each well of a 96-well plate. The plate was incubated at 37 °C, 5% CO2 in a humidified incubator. A serial 3 × dilution of the lanthipeptides in water was made (10 µM to 5 nM). After 48 h of incubation, 10 µl of the serial dilutions was applied to the cells in duplicate. The agonists were incubated for 90 min at 37 °C. Next, 55 µL of Working Detection Solution was added, and after 1 h of incubation at room temperature in the dark, the chemiluminescent signal was read with a Synergy HT Biotek reader.

GAL1R [3] = molecular target: T2, GAL1R; assay: cAMP Hunter eXpress GAL1R CHO-K1 GPCR assay (inhibition of forskolin-induced cAMP); parameters: expressed in transfected cells; conditions: Table 3; CHO-K1 cells expressing GAL1R; 20 µM forskolin; 10 µM to 5 nM; (average) ratio, (n) in cell = number of assays; NA = ratio above 1000
Method: To evaluate the ability of lanthipeptides to […] via GAL1R signaling, we used the cAMP Hunter™ eXpress GAL1R CHO-K1 GPCR Assay from Eurofins-DiscoverX. The assay was performed according to the manufacturer’s instructions. Briefly, for one assay, CHO-K1 cells expressing GAL1R were diluted in AssayComplete™ Cell Plating 2 Reagent, and 100 µl was seeded into each well of a 96-well plate. The plate was incubated at 37 °C, 5% CO2 in a humidified incubator. After 24 h of incubation, the media was aspirated, and 45 µl cell assay buffer/antibody mixture was added to all wells. […] Fifteen µl of the serial dilutions was applied in duplicates to the cells. The concentration of forskolin in the assay was 20 µM. The agonists were incubated for 30 min at 37 °C. Next, 15 µL Antibody Solution and 60 μL cAMP Working Detection Solution were added, and the plate was incubated for 1 h in the dark at room temperature. Finally, 60 μL cAMP Solution A was added and, after 3 h of incubation in the dark at room temperature, the chemiluminescent signal was read with a Synergy HT Biotek reader.

GAL2R [4] = molecular target: T1, GAL2R; assay: PathHunter eXpress β-arrestin recruitment assay, GAL2R; parameters: expressed in transfected cells; conditions: Table 3; CHO-K1 cells co-expressing GAL2R and β-arrestin 2; 10 µM to 5 nM; (average) ratio, (n) in cell = number of assays; NA = ratio above 1000
Method: as §1

Compound | EC50 ratios to Gal-(1-15), GAL2R Ca-efflux (GAL2R [1]) | EC50 ratios to Gal-(1-15), GAL1R ß-Arrestin (GAL1R [2]) | EC50 ratios to Gal-(1-15), GAL1R cAMP (GAL1R [3]) | EC50 ratios to Gal-(1-15), GAL2R ß-Arrestin (GAL2R [4])
CC(C)C[C@H](NC(=O)[C@H](CC(C)C)NC(=O)[C@H](Cc1ccc(O)cc1)NC(=O)CNC(=O)[C@H](C)NC(=O)[C@H](C)NC(=O)[C@H](CC(N)=O)NC(=O)[C@H](CC(C)C)NC(=O)[C@H](CC(N)=O)NC(=O)[C@H](Cc1c[nH]c2ccccc12)NC(=O)[C@@H]1CCC(=O)N1)C(=O)NCC(=O)N[C@@H](C)C(=O)N[C@H]1C(=O)N[C@@H](C)C(=O)N[C@@H](C(C)C)C(=O)N[C@H](C(=O)N[C@@H](CC(N)=O)C(=O)N[C@@H](Cc2c[nH]cn2)C(=O)N[C@@H](CCCNC(=N)N)C(=O)O)CS[C@H]1C [Variant M54] ([pGlu]WNLNAAGYLLGA[dAbu(3S-yl)]AVCNHR-OH; thioether 14-17; C-terminus assumed) | 3.3 (3) | 4.5 (2) | 140 (2) | 1.2 (3)
GWNLNAAGYLLATHACG (also: sidechain bridge or staple (positions not given here)) [Variant M89, methyllanthionine-containing galanin variant produced in L. lactis] | 2.7 (1) | 148 (1) | NA (1) (NA is not active; ratios above 1000 were considered to be not active) | 3 (1)
GWNLNAAGYLLATHACGNHR (also: sidechain bridge or staple (positions not given here)) [Variant M50, methyllanthionine-containing galanin variant produced in L. lactis] | 3.5 (2) | 3.8 (1) | 12.5 (1) | 0.5 (1)
GWNLNAAGYLLGATAVCNHR (also: sidechain bridge or staple (positions not given here)) [Variant M51, methyllanthionine-containing galanin variant produced in L. lactis] | 2.9 (2) | 1.5 (2) | 3.6 (1) | 0.6 (2)
GWNLNAAGYLLGPHTVGCHR (also: sidechain bridge or staple (positions not given here)) [Variant M52, methyllanthionine-containing galanin variant produced in L. lactis] | 1.9 (1) | 8.3 (1) | 7.5 (2) | 0.6 (1)
GWNLNAAGYLLGTHACG (also: sidechain bridge or staple (positions not given here)) [Variant M84, methyllanthionine-containing galanin variant produced in L. lactis] | 6.3 (1) | 35 (1) |  | NA (1) (NA is not active; ratios above 1000 were considered to be not active)
GWNLNAATYLCGPHAVGNHR (also: sidechain bridge or staple (positions not given here)) [Variant M60, methyllanthionine-containing galanin variant produced in L. lactis] | 8.7 (1) |  | NA (2) (NA is not active; ratios above 1000 were considered to be not active) | NA (1) (NA is not active; ratios above 1000 were considered to be not active)

Now from value to compound:

EC50 ratios to Gal-(1-15), GAL2R Ca-efflux (GAL2R [1]) | EC50 ratios to Gal-(1-15), GAL1R ß-Arrestin (GAL1R [2]) | EC50 ratios to Gal-(1-15), GAL1R cAMP (GAL1R [3]) | EC50 ratios to Gal-(1-15), GAL2R ß-Arrestin (GAL2R [4]) | Compound
2.6 (3) | 129 (1) | 13.3 (1) | 4.2 (1) | CC(C)C[C@H](NC(=O)[C@H](CC(C)C)NC(=O)[C@H](Cc1ccc(O)cc1)NC(=O)CNC(=O)[C@H](C)NC(=O)[C@H](C)NC(=O)[C@H](CC(N)=O)NC(=O)[C@H](CC(C)C)NC(=O)[C@H](CC(N)=O)NC(=O)[C@H](Cc1c[nH]c2ccccc12)NC(=O)[C@@H]1CCC(=O)N1)C(=O)NCC(=O)N1CCC[C@H]1C(=O)N[C@@H](Cc1c[nH]cn1)C(=O)N[C@@H](C)C(=O)N[C@H]1C(=O)NCC(=O)N[C@@H](CC(N)=O)C(=O)N[C@H](C(=O)N[C@@H](CCCNC(=N)N)C(=O)O)CS[C@H]1C [Variant M74b] ([pGlu]WNLNAAGYLLGPHA[dAbu(3S-yl)]GNCR-OH; thioether 16-19; C-terminus assumed)
4.6 (1) | 2.7 (1) | 4.9 (1) | 3.2 (1) | GWNLNAAGYLLGATAVC (also: sidechain bridge or staple (positions not given here)) [Variant M90, methyllanthionine-containing galanin variant produced in L. lactis]
0.9 (1) | 1.0 (1) | 0.6 (1) | 1.0 (1) | GWNLNAAGYLLGATAVGCHR (also: sidechain bridge or staple (positions not given here)) [Variant M76, methyllanthionine-containing galanin variant produced in L. lactis]
4.7 (1) | 2.3 (1) | 4.6 (1) | 2.6 (1) | GWNLNAAGYLLGPHATGNCR (also: sidechain bridge or staple (positions not given here)) [Variant M74, methyllanthionine-containing galanin variant produced in L. lactis]
